Laboratory results reported in US11530244B2, “Cyclic polypeptides for PCSK9 inhibition” (priority 2018, dated 2022).
Starred links: 1 amine or outer side, 2 acyl side, 3 side chain; linkers in the order of their positions; H or OH if unused. Positions of bridges follow the written chain, without caps; N, C: chain ends. Non-standard residues stand in square brackets, D forms with d. Residues, ends and D or L forms follow the SMILES beside them. Groups on a side chain read outwards from the residue. *: point of attachment. Phe(3-CH2NH2) = O=C([C@H](Cc1cccc(CN[*:3])c1)N[*:1])[*:2]; X1 = O=C1CC[C@@H](C(=O)[*:1])N1CCCSCc1cccc(C[*:2])c1; NHCH2C6H4(p)CH2CH2NH = c1cc(CN[*:1])ccc1CCN[*:2]; X32 = O=C(CCc1cccc2c1oc1c(CCN[*:1])cccc12)[*:2]; Trp(5-F) = N[C@@H](Cc1c[nH]c2ccc(F)cc12)C(=O)O; Phe(4-CH2NH2) = NCc1ccc(C[C@H](N)C(=O)O)cc1; X49 = NCCCC[C@H](N[*:1])c1nc(C(=O)[*:2])co1; X3 = O=C(CCSCc1cc(F)cc(CSCCN[*:1])c1)[*:2]; Pro(cis-4-F) = O=C(O)[C@@H]1C[C@H](F)CN1; γGlu = O=C(O)[C@H](CCC(=O)[*:2])N[*:1]; mXylylene = c1cc(C[*:1])cc(C[*:2])c1; Adipoyl = O=C(CCCCC(=O)[*:2])[*:1]; Glutaryl = O=C(CCCC(=O)[*:2])[*:1]; Palmitoyl = CCCCCCCCCCCCCCCC(=O)*; X46 = O=C(C[*:2])NCCCCC(=O)[*:1]; PEG4 = NCCOCCOCCOCCOCCC(=O)O; αMeP = C[C@@]1(C(=O)O)CCCN1; 3Amb = NCc1cccc(C(=O)O)c1; Dap = NC[C@H](N)C(=O)O; AEEA = NCCOCCOCC(=O)O; AEA = NCCOCC(=O)O; Mpa = O=C(O)CCS

Key:
PCSK9 [1] = target: T1, PCSK9 (Homo sapiens (Human), UniProt Q8NBP7); experiment: PCSK9 Alexa FRET Standard assay (displacement of AlexaFluor647 tagged cyclic peptide Reagent A); assay type: binding; details: 0.5 nM PCSK9, 20 nM AF cyclic peptide Reagent A
In short: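 TR-FRET displacement: 0.5 nM biotinylated PCSK9 with 1.25 nM Strep-Eu and 20 nM AlexaFluor-tagged cyclic peptide (final) in 50 mM HEPES pH 7.4, 0.15 M NaCl, 5 mM CaCl2, 0.01% BSA, 0.01% P20, ≥2 h at room temperature. IC50 from sigmoidal fit, converted to Ki via peptide KD; falling Eu counts flagged false positives.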

PCSK9 [2] = target: T1, PCSK9; experiment: PCSK9 Alexa FRET Plus assay (displacement of AlexaFluor647 tagged cyclic peptide Reagent B); assay type: binding; details: 0.5 nM PCSK9, 960 nM AF cyclic peptide Reagent B
Description: A solution containing 1 nM biotinylated PCSK9+2.5 nM Lance Streptavidin Europium (Strep-Eu) was made in 50 mM HEPES pH 7.4, 0.15 M NaCl, 5 mM CaCl2), 0.01% BSA, and 0.01% Surfactant P20. A separate solution containing 1920 nM of the AlexaFluor tagged cyclic peptide was made in the same buffer system. An Echo was used to transfer 0.075 ul of compound plus 0.675 ul of DMSO to each well of an assay plate followed by the addition of 15 ul of PCSK9+Stept-Eu and 15 ul of AF peptide. The final assay volume was 30.750 ul containing 0.5 nM PCSK9, 1.25 nM Strep-Eu, and 960 nM AF cyclic peptide. The reaction was incubated at room temperature for at least two hours prior to fluorescence measurements using an Envision Multilabel Reader. IC50 values were determined by fitting data to a sigmoidal dose-response curve using nonlinear regression. Ki was then calculated from the IC50 and the KD of AF cyclic peptide. Counts (B-counts) of the europium-labeled PCSK9 were followed to observe if compounds were adversely affecting PCSK9. A fall off of the B-counts likely indicated a false positive of inhibition. Data from this procedure was reported as “P=‘numerical value’ (nanomolar)”

[3] = PCSK9 Alexa FRET Standard assay, read-out: IC50
[4] = Alexa FRET Plus, read-out: IC50

T1 sequence (Q8NBP7 153-692): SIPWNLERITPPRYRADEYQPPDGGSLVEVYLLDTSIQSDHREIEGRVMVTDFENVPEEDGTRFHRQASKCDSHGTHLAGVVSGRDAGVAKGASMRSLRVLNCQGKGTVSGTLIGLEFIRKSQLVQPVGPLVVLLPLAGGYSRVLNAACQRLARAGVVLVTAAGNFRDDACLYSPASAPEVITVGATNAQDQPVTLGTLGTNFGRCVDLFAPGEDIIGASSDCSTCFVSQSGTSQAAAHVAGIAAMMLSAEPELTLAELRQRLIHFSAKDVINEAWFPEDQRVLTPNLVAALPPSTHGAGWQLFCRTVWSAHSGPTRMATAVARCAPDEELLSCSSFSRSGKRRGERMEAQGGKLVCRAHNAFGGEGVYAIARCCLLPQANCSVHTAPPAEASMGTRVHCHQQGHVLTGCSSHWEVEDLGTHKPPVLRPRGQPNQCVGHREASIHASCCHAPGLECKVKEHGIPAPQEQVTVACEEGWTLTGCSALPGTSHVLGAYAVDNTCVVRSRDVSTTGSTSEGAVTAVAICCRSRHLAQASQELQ

Structure (SMILES)	IC50 (PCSK9 [1]; [3]) [nM]	IC50 (PCSK9 [2]; [4]) [nM]	IC50 (PCSK9 [1]; IC50, PCSK9 Alexa FRET Standard assay) [nM]	IC50 (PCSK9 [2]; IC50, Alexa FRET Plus) [nM]
C[C@@]12CCCN1C(=O)[C@H](Cc1ccc(O)cc1)NC(=O)[C@H](Cc1cnc[nH]1)NC(=O)[C@H](CC(=O)O)NC(=O)[C@H](Cc1c[nH]c3ccc(F)cc13)NC(=O)[C@H](Cc1c[nH]c3ccc(F)cc13)NC(=O)CNC(=O)[C@H](CCCCNC(=O)CCOCCOCCOCCOCCN)NC(=O)CCSCc1cccc(c1)CSC[C@@H](C(N)=O)NC2=O [Compound 485] ([Mpa]K(PEG4)G[Trp(5-F)][Trp(5-F)]DHY[αMeP]C-NH2; linker 1-10 via mXylylene)	0.11 to 100	0.1 to 100		
COc1ccc(C[C@@H]2NC(=O)[C@H]([C@@H](C)O)NC(=O)[C@@H]3C[C@H](F)CN3C(=O)[C@H](Cc3c[nH]c4ccc(F)cc34)NC(=O)[C@H](Cc3c[nH]c4ccc(F)cc34)NC(=O)[C@@H](C)NC(=O)[C@H](CCCCN)NC(=O)[C@@H](NC(C)=O)CC(=O)NCc3ccc(cc3)CCNC(=O)[C@]3(C)CCCN3C2=O)cc1 [Compound 095] (Ac-DK[dA][Trp(5-F)][Trp(5-F)][Pro(cis-4-F)]TY(Me)[αMeP]; linker 1-C via NHCH2C6H4(p)CH2CH2NH)	100 to 1000	500 to 5000		
CCCCCCCCCCCCCCCC(=O)N[C@@H](CCC(=O)NCCOCCOCC(=O)NCCOCCOCC(=O)NCCCC[C@@H]1NC(=O)CCSCc2cccc(c2)CSC[C@@H](C(N)=O)NC(=O)[C@]2(C)CCCN2C(=O)[C@H](Cc2ccc(O)cc2)NC(=O)[C@H](Cc2cnc[nH]2)NC(=O)[C@H](CC(=O)O)NC(=O)[C@H](Cc2c[nH]c3ccc(F)cc23)NC(=O)[C@H](Cc2c[nH]c3ccc(F)cc23)NC(=O)[C@@H](C)NC1=O)C(=O)O [Compound 456] ([Mpa]K([AEEA-AEEA-γGlu-Palmitoyl])[dA][Trp(5-F)][Trp(5-F)]DHY[αMeP]C-NH2; linker 1-10 via mXylylene)	21000 to 50000	500 to 5000		
NC(=O)[C@@H]1Cc2ccc(cc2)CNC(=O)CCCC(=O)NCC(=O)N[C@@H](Cc2c[nH]c3ccc(F)cc23)C(=O)N[C@@H](Cc2c[nH]c3ccc(F)cc23)C(=O)N[C@@H](CC(=O)O)C(=O)N[C@@H](Cc2cnc[nH]2)C(=O)N[C@@H](Cc2ccc(O)cc2)C(=O)N1 [Compound 437] (G[Trp(5-F)][Trp(5-F)]DHY[Phe(4-CH2NH2)]-NH2; linker N-7 via Glutaryl)	0.11 to 100	100 to 500		
CCCCCCCCCCCCCCCC(=O)N[C@@H](CCC(=O)NCCOCCOCC(=O)NCCOCCOCC(=O)NCc1cccc(C[C@@H]2NC(=O)[C@@H](C)NC(=O)[C@H](CCCCN)NC(=O)CCSCc3cccc(c3)CSC[C@@H](C(N)=O)NC(=O)[C@]3(C)CCCN3C(=O)[C@H](Cc3ccc(O)cc3)NC(=O)[C@H](Cc3cnc[nH]3)NC(=O)[C@H](CC(=O)O)NC(=O)[C@H](Cc3c[nH]c4ccc(F)cc34)NC2=O)c1)C(=O)O [Compound 476] ([Mpa]K[dA][Phe(3-CH2NH2)]([AEEA-AEEA-γGlu-Palmitoyl])[Trp(5-F)]DHY[αMeP]C-NH2; linker 1-10 via mXylylene)	0.11 to 100	100 to 500		
COc1ccc(C[C@@H]2NC(=O)[C@H](Cc3cnc[nH]3)NC(=O)[C@H](CC(=O)O)NC(=O)[C@H](Cc3c[nH]c4ccc(F)cc34)NC(=O)[C@H](Cc3c[nH]c4ccc(F)cc34)NC(=O)[C@@H](C)NC(=O)CCCCC(=O)NCc3ccc(cc3)C[C@@H](C(N)=O)NC(=O)[C@]3(C)CCCN3C2=O)cc1 [Compound 419] ([dA][Trp(5-F)][Trp(5-F)]DHY(Me)[αMeP][Phe(4-CH2NH2)]-NH2; linker N-8 via Adipoyl)	100 to 1000	500 to 5000		
COc1ccc(C[C@@H]2NC(=O)[C@H]([C@@H](C)O)NC(=O)[C@@H]3C[C@H](F)CN3C(=O)[C@H](Cc3c[nH]c4ccc(F)cc34)NC(=O)[C@H](Cc3c[nH]c4ccc(F)cc34)NC(=O)[C@@H](C)NC(=O)[C@H](CCCCN)NC(=O)[C@@H](NC(C)=O)CCCCCc3ccc(cc3)C[C@@H](C(N)=O)NC(=O)[C@]3(C)CCCN3C2=O)cc1 [Compound 141]	100 to 1000	500 to 5000		
C[C@@]12CCCN1C(=O)[C@H](Cc1ccc(O)cc1)NC(=O)CN1C(=O)[C@H](N=C(c3ccccc3)c3ccccc31)NC(=O)[C@H](Cc1c[nH]c3ccc(F)cc13)NC(=O)[C@H](Cc1c[nH]c3ccc(F)cc13)NC(=O)CNC(=O)[C@H](CCCCN)NC(=O)CCSCc1cccc(c1)CSC[C@@H](C(N)=O)NC2=O [Compound 121]			0.11 to 100	0.1 to 100
C[C@H]1NC(=O)[C@H](CCCCN)NC(=O)CCSCc2cccc(c2)CSC[C@@H](C(N)=O)NC(=O)[C@]2(C)CCCN2C(=O)[C@H](Cc2ccc(O)cc2)NC(=O)c2cccc(c2)CNC(=O)[C@H](Cc2c[nH]c3ccc(F)cc23)NC(=O)[C@H](Cc2c[nH]c3ccc(F)cc23)NC1=O [Compound 089] ([Mpa]K[dA][Trp(5-F)][Trp(5-F)][3Amb]Y[αMeP]C-NH2; linker 1-9 via mXylylene)	0.11 to 100	0.1 to 100		
C[C@@]12CCCN1C(=O)[C@H](Cc1ccc(O)cc1)NC(=O)[C@H](Cc1c[nH]cn1)NC(=O)[C@H](CC(=O)O)NC(=O)[C@H](Cc1c[nH]c3ccc(F)cc13)NC(=O)[C@H](Cc1c[nH]c3ccc(F)cc13)NC(=O)CNC(=O)[C@@H]1CCC(=O)N1CCCSCc1cccc(c1)CSC[C@@H](C(N)=O)NC2=O [Compound 481] (G[Trp(5-F)][Trp(5-F)]DHY[αMeP]C-NH2; linker N-8 via X1)	1000 to 12100	500 to 5000		
COc1ccc(C[C@@H]2NC(=O)[C@H](Cc3cnc[nH]3)NC(=O)[C@H](CC(=O)O)NC(=O)[C@H](Cc3c[nH]c4ccc(F)cc34)NC(=O)[C@H](Cc3c[nH]c4ccc(F)cc34)NC(=O)[C@@H](C)NC(=O)[C@H](CNC(=O)COCCN)NC(=O)CCSCc3cc(F)cc(c3)CSCCNC(=O)[C@]3(C)CCCN3C2=O)cc1 [Compound 423] (cyclo(DHY(Me)[αMeP][X3][Dap](AEA)[dA][Trp(5-F)][Trp(5-F)]))	0.11 to 100	0.1 to 100		
C[C@@]12CCCN1C(=O)[C@H](Cc1ccc(O)cc1)NC(=O)CCc1cccc3c1Oc1c(cccc1-3)CCNC(=O)[C@H](Cc1c[nH]c3ccc(F)cc13)NC(=O)[C@H](Cc1c[nH]c3ccc(F)cc13)NC(=O)CNC(=O)[C@H](CCCCN)NC(=O)CCSCc1cccc(c1)CSC[C@H](C(N)=O)NC2=O [Compound 120] ([Mpa]KG[Trp(5-F)][Trp(5-F)][X32]Y[αMeP][dC]-NH2; linker 1-9 via mXylylene)	1000 to 12100	500 to 5000		
C[C@@]12CCCN1C(=O)[C@H](Cc1ccc(O)cc1)NC(=O)[C@H](Cc1c[nH]cn1)NC(=O)[C@H](CC(=O)O)NC(=O)[C@H](Cc1c[nH]c3ccc(F)cc13)NC(=O)[C@H](Cc1c[nH]c3ccc(F)cc13)NC(=O)c1coc(n1)[C@H](CCCCN)NC(=O)CCSCc1cccc(c1)CSC[C@@H](C(N)=O)NC2=O [Compound 477] ([Mpa][X49][Trp(5-F)][Trp(5-F)]DHY[αMeP]C-NH2; linker 1-9 via mXylylene)	1000 to 12100	500 to 5000		
COc1ccc(C[C@@H]2NC(=O)[C@H]([C@@H](C)O)NC(=O)[C@@H]3C[C@H](F)CN3C(=O)[C@H](Cc3c[nH]c4ccc(F)cc34)NC(=O)[C@H](Cc3c[nH]c4ccc(F)cc34)NC(=O)[C@@H](C)NC(=O)[C@H](CCCCN)NC(=O)CCCCNC(=O)COc3ccc(cc3)C[C@@H](C(N)=O)NC(=O)[C@]3(C)CCCN3C2=O)cc1 [Compound 117] (K[dA][Trp(5-F)][Trp(5-F)][Pro(cis-4-F)]TY(Me)[αMeP]Y-NH2; linker N-9 via X46)	0.11 to 100	500 to 5000		
C[C@@]12CCCN1C(=O)[C@H](Cc1ccc(O)cc1)NC(=O)CN1C(=O)[C@@H](CCc3ccccc31)NC(=O)[C@H](Cc1c[nH]c3ccc(F)cc13)NC(=O)[C@H](Cc1c[nH]c3ccc(F)cc13)NC(=O)CNC(=O)[C@H](CCCCN)NC(=O)CCSCc1cccc(c1)CSC[C@@H](C(N)=O)NC2=O [Compound 109]	0.11 to 100	100 to 500		
C[C@@]12CCCN1C(=O)[C@H](Cc1ccc(O)cc1)NC(=O)CN1C(=O)[C@H](COc3ccccc31)NC(=O)[C@H](Cc1c[nH]c3ccc(F)cc13)NC(=O)[C@H](Cc1c[nH]c3ccc(F)cc13)NC(=O)CNC(=O)[C@H](CCCCN)NC(=O)CCSCc1cccc(c1)CSC[C@@H](C(N)=O)NC2=O [Compound 126]	0.11 to 100	0.1 to 100		
